According to publication PMC9739780, “Pharmacokinetic Comparison of Eight Major Compounds of Lonicerae japonicae flos after Oral Administration in Normal Rats and Rats with Liver Injury” (Molecules, 2022):

Columns and labels:
[1] = Pharmacokinetics after oral administration of LJF extract in CCl4-induced liver injury model rats; format: in vivo, Sprague-Dawley rats; conditions: for AUC(0-t) / AUC(0-inf) / Cmax / MRT last / MRT inf / Tmax / half-life: male, Sprague-Dawley
Experimental: Intraperitoneal injection of CCl4 was used to induce liver injury in rats, and the successful establishment of the model was measured by detecting ALT and AST in rat plasma.
(§1) This method has been successfully applied to study the pharmacokinetics of LJF orally in normal rats and acute liver injury rats. The pharmacokinetic parameters were analyzed using the […] model analysis on the DAS 2.0 platform. The mean plasma concentration–time curves of 3-CQA, 4-CQA, 5-CQA, 3,5-diCQA, 4,5-diCQA, PA, Secoxyloganin, and Sweroside are shown in Figure 4. Pharmacokinetic parameters included: Cmax, Tmax, area under the concentration–time curve (AUC0–t), AUC0–∞, MRT0–t, and MRT0–∞, as shown in Table 6 and Figure 4.
(§2) […] male Sprague-Dawley rats with body weights of 250 ± 20 g were purchased from the Experimental Animal Center of Heilongjiang University of Chinese Medicine and fed in the SPF animal laboratory, under a standard room temperature of 25 ± 2 °C, relative humidity of 50 ± 15%, and a 12 h light/12 h dark cycle. The experiment followed the ethical norms of experimental animals of Heilongjiang University of Chinese Medicine (License number: SCXK (Hei) 2021-004). Twelve rats were randomly divided into normal and model groups of six rats each. After intraperitoneal injection of CCl4 (0.06 mL/kg) for 24 h, blood samples were collected into heparinized tubes via the orbital vein, centrifuged at 2000 r/min for 20 min, and the levels of AST and ALT in serum were determined by the microplate method.
(§3) The pharmacokinetic properties and parameters of 3-CQA, 4-CQA, 5-CQA, 3,5-diCQA, 4,5-diCQA, PA, Secoxyloganin, and Sweroside in rats were studied after oral administration of the LJF extract. […] The supernatant plasma was then transferred to a 1.5 mL centrifuge tube and stored at −20 °C for later use.
(§4) Here, 100 μL aliquots of the plasma sample were thawed and pipetted into centrifuge tubes and 10 μL of chloramphenicol solution (500 ng/mL) and daidzein solution (500 ng/mL) were added, respectively, and 780 μL of methanol was added to precipitate for 5 min. Then, the supernatant was centrifuged for 5 min at 12,000 rp/min. The supernatant was transferred to a nitrogen blowing machine and dried at 40 °C. The residue was reconstituted in 100 μL of 50% methanol, and the sample was filtered through the membrane and then injected into the UPLC-MS/MS system.
(§5) DAS 2.0 software was used to calculate the pharmacokinetic parameters of the […] model, including Cmax, Tmax, AUC0–t, AUC0–∞, MRT0–t, MRT0–∞, and t1/2. The statistical software GraphPad Prism 5.0 was used for graph plotting and statistical analysis of drug duration curves.

[2] = Pharmacokinetics after oral administration of LJF extract in normal rats; format: in vivo, Sprague-Dawley rats
Experimental: as §1, §2, §3, §4, §5

[3] = rat, liver injury model group (M, CCl4), oral LJF ethanol extract 15.75 g/kg, plasma, mean ± SD, n = 6, read-out: AUC0–t
[4] = rat, liver injury model group (M, CCl4), oral LJF ethanol extract 15.75 g/kg, plasma, mean ± SD, n = 6, read-out: AUC0–∞
[5] = rat, liver injury model group (M, CCl4), oral LJF ethanol extract 15.75 g/kg, plasma, mean ± SD, n = 6, read-out: Cmax
[6] = rat, liver injury model group (M, CCl4), oral LJF ethanol extract 15.75 g/kg, plasma, mean ± SD, n = 6, read-out: MRT0–t
[7] = rat, liver injury model group (M, CCl4), oral LJF ethanol extract 15.75 g/kg, plasma, mean ± SD, n = 6, read-out: MRT0–∞
[8] = rat, liver injury model group (M, CCl4), oral LJF ethanol extract 15.75 g/kg, plasma, mean ± SD, n = 6, read-out: Tmax
[9] = rat, liver injury model group (M, CCl4), oral LJF ethanol extract 15.75 g/kg, plasma, mean ± SD, n = 6, read-out: t1/2 (converted)
[10] = result in words, oral LJF extract, rat plasma
[11] = male, Sprague-Dawley, rat, normal group (N), oral LJF ethanol extract 15.75 g/kg, plasma, mean ± SD, n = 6, read-out: AUC0–t
[12] = male, Sprague-Dawley, rat, normal group (N), oral LJF ethanol extract 15.75 g/kg, plasma, mean ± SD, n = 6, read-out: AUC0–∞
[13] = male, Sprague-Dawley, rat, normal group (N), oral LJF ethanol extract 15.75 g/kg, plasma, mean ± SD, n = 6, read-out: Cmax
[14] = male, Sprague-Dawley, rat, normal group (N), oral LJF ethanol extract 15.75 g/kg, plasma, mean ± SD, n = 6, read-out: MRT0–t
[15] = male, Sprague-Dawley, rat, normal group (N), oral LJF ethanol extract 15.75 g/kg, plasma, mean ± SD, n = 6, read-out: MRT0–∞
[16] = male, Sprague-Dawley, rat, normal group (N), oral LJF ethanol extract 15.75 g/kg, plasma, mean ± SD, n = 6, read-out: Tmax
[17] = male, Sprague-Dawley, rat, normal group (N), oral LJF ethanol extract 15.75 g/kg, plasma, mean ± SD, n = 6, read-out: t1/2 (converted)
[18] = male, Sprague-Dawley, rat, in vivo, po, 15.75 g/kg

AUC(0-t) [2, 11] | AUC(0-inf) [2, 12] | Cmax [2, 13] | MRT last [2, 14] | MRT inf [2, 15] | Tmax [2, 16] | half-life [2, 17] | SMILES | AUC(0-t) [1, 3] | AUC(0-inf) [1, 4] | Cmax [1, 5] | MRT last [1, 6] | MRT inf [1, 7] | Tmax [1, 8] | half-life [1, 9] | AUC0–t, model group compared with the normal group [1, 10] | AUC0–∞, model group compared with the normal group [1, 10] | Cmax, model group compared with the normal group [1, 10] | Tmax, model group compared with the normal group [1, 10] | AUC(0-inf) ([1]; rat, in vivo, po, 15.75 g/kg) | AUC(0-t) ([1]; rat, in vivo, po, 15.75 g/kg) | also measured
2170 ± 616 ng·h/mL | 2340 ± 569 ng·h/mL | 1110 ± 448 ng/mL | 9.65 ± 1.72 h | 14.7 ± 4.18 h | 0.208 ± 0.0457 h | 15.2 ± 5.24 h | O=C(/C=C/c1ccc(O)c(O)c1)O[C@@H]1[C@H](O)C[C@@](O)(C(=O)O)C[C@@H]1O (stereo in doubt) [4-CQA, 4-caffeoylquinic acid] | 5970 ± 1800 ng·h/mL | 6810 ± 1140 ng·h/mL | 2370 ± 425 ng/mL | 10.1 ± 1.06 h | 29.7 ± 24.8 h | 0.14 ± 0.043 h | 42.2 ± 31.7 h | increased | increased | increased | significantly decreased | – | – | –
12100 ng·h/mL | 13100 ng·h/mL | 5110 ± 1220 ng/mL | 13.9 ± 1.31 h | 18.2 ± 1.94 h | 0.208 ± 0.0457 h | 12.9 ± 0.765 h | O=C(/C=C/c1ccc(O)c(O)c1)O[C@H]1C[C@](O)(C(=O)O)C[C@@H](O)[C@H]1O [3-CQA, 3-caffeoylquinic acid] | 16400 ng·h/mL | 17400 ng·h/mL | 6290 ± 1260 ng/mL | 13.4 ± 1.67 h | 23.3 ± 11.2 h | 0.19 ± 0.043 h | 12.2 ± 3.12 h | significantly increased | significantly increased | increased but there was no significant difference | – | – | – | –
198 ± 37 ng·h/mL | 292 ± 26 ng·h/mL | 22.6 ± 8.36 ng/mL | 23.2 ± 0.86 h | 44.1 ± 16.9 h | 0.33 ± 0.13 h | 24.8 ± 12.8 h | O=C(O)c1ccc(O)c(O)c1 [PA, protocatechuic acid] | 219 ± 59.1 ng·h/mL | 547 ± 209 ng·h/mL | 23 ± 2.97 ng/mL | 26.6 ± 2.13 h | 49.8 ± 28.9 h | 0.18 ± 0.034 h | 25.5 ± 17 h | – | increased | – | reached the peak earlier | – | – | clearance rate, model group compared with the normal group ([1]; result in words, oral LJF extract): decreased; MRT0–t, model group compared with the normal group [1, 10]: prolonged
– | – | – | – | – | – | – | C=C[C@H]1[C@H](O[C@@H]2O[C@H](CO)[C@@H](O)[C@H](O)[C@H]2O)OC=C(C(=O)OC)[C@H]1CC(=O)O [Secoxyloganin] | – | – | – | – | – | – | – | – | – | – | – | 17100 ng·h/mL | 15000 ng·h/mL | Cmax ([1]; rat, in vivo, po, 15.75 g/kg): 4150 ± 377 ng/mL; MRT inf ([1]; rat, in vivo, po, 15.75 g/kg): 18.2 ± 2.24 h; MRT last ([1]; rat, in vivo, po, 15.75 g/kg): 8.74 ± 0.58 h; Tmax ([1]; rat, in vivo, po, 15.75 g/kg): 0.29 ± 0.102 h; half-life ([1]; rat, in vivo, po, 15.75 g/kg): 23.6 ± 3.48 h; Cmax, model group compared with the normal group ([1]; rat, in vivo, po): significantly higher; MRT0–∞, model group compared with the normal group ([1]; rat, in vivo, po): significantly higher; Tmax, model group compared with the normal group ([1]; rat, in vivo, po): significantly lower; AUC(0-inf) [2, 18]: 7610 ± 4120 ng·h/mL; AUC(0-t) [2, 18]: 6230 ± 1070 ng·h/mL; Cmax [2, 18]: 1510 ± 331 ng/mL; MRT inf [2, 18]: 12.4 ± 1.04 h; MRT last [2, 18]: 11.9 ± 1.69 h; Tmax [2, 18]: 0.46 ± 0.102 h; half-life [2, 18]: 16.1 ± 19.1 h
– | – | – | – | – | – | – | C=C[C@H]1[C@H](O[C@@H]2O[C@H](CO)[C@@H](O)[C@H](O)[C@H]2O)OC=C2C(=O)OCC[C@H]21 [Sweroside] | – | – | – | – | – | – | – | – | – | – | – | 16700 ng·h/mL | 16000 ng·h/mL | Cmax ([1]; rat, in vivo, po, 15.75 g/kg): 2364.23 ± 440 ng/mL; MRT inf ([1]; rat, in vivo, po, 15.75 g/kg): 13.7 ± 1.33 h; MRT last ([1]; rat, in vivo, po, 15.75 g/kg): 11.3 ± 0.48 h; Tmax ([1]; rat, in vivo, po, 15.75 g/kg): 0.67 ± 0.26 h; half-life ([1]; rat, in vivo, po, 15.75 g/kg): 11.8 ± 1.51 h; AUC0–∞, model group compared with the normal group ([1]; rat, in vivo, po): significantly higher; Cmax, model group compared with the normal group ([1]; rat, in vivo, po): increased compared with that in the normal group, but there was no significant difference; AUC(0-inf) [2, 18]: 10000 ng·h/mL; AUC(0-t) [2, 18]: 9690 ± 1410 ng·h/mL; Cmax [2, 18]: 1930 ± 609 ng/mL; MRT0–t [2, 18]: 12.29 ± 1.14 h; MRT inf [2, 18]: 13.9 ± 1.86 h; Tmax [2, 18]: 0.53 ± 0.38 h; half-life [2, 18]: 9.78 ± 2.87 h

SMILES | AUC(0-t) [2, 11] | AUC(0-inf) [2, 12] | Cmax [2, 13] | MRT last [2, 14] | MRT inf [2, 15] | Tmax [2, 16] | half-life [2, 17] | AUC(0-t) [1, 3] | AUC(0-inf) [1, 4] | Cmax [1, 5] | MRT last [1, 6] | MRT inf [1, 7] | Tmax [1, 8] | half-life [1, 9] | AUC0–t, model group compared with the normal group [1, 10] | AUC0–∞, model group compared with the normal group [1, 10] | Cmax, model group compared with the normal group [1, 10] | Tmax, model group compared with the normal group [1, 10] | AUC(0-inf) ([1]; rat, in vivo, po, 15.75 g/kg) | AUC(0-t) ([1]; rat, in vivo, po, 15.75 g/kg) | also measured
O=C(/C=C/c1ccc(O)c(O)c1)O[C@@H]1C[C@](O)(C(=O)O)C[C@@H](O)[C@H]1O [5-CQA, 5-caffeoylquinic acid] | – | – | 266 ± 102 ng/mL | 18 ± 2.34 h | 21.4 ± 2.86 h | – | 17.9 ± 9.97 h | 3570 ± 686 ng·h/mL | 3970 ± 712 ng·h/mL | 1120 ± 316 ng/mL | – | 20.9 ± 8.54 h | – | 18.9 ± 18.4 h | increased | increased | increased | not significantly different | – | – | MRT0–t ([1]; liver injury model group (M, CCl4), oral LJF ethanol extract 15.75 g/kg, plasma, mean ± SD, n = 6): 11.08 ± 2.42 h; Tmax ([2]; normal group (N), oral LJF ethanol extract 15.75 g/kg, plasma, mean ± SD, n = 6): 0.24 ± 0.03405 h
